Data set [1] deals with T1, HCV NS3/4A protease (Hepatitis C virus genotype 1b, UniProt O92972).
T1 construct: HCV NS3/4A protease; purchased AnaSpec, San Jose, Calif., USA lot# Lot 046-047 (screening); lot# Lot 046-079 (mechanism study); catalogue number not given
Put plainly: HCV protease inhibition assay (SensoLyte 520 HCV Protease Assay Kit, FRET peptide substrate). It counts as biochemical. Conditions: for IC50: enzyme 0.5 μg/ml, 30 min at room temperature (28° C.), read-out: IC50 against HCV protease (converted). From the text: Since the mycelium of Antrodia cinnamomea was recently reported to be clinically effective for hepatitis patients infected with HCV (Akiba T et al. 2007. Clinical study of Shoshi on Japanese hepatitis patients infected with C type hepatitis virus. The second Taiwan and Japan Symposium on Antrodia cinnamomea, Abst. pp. 82-98), a SensoLyte™ 520 HCV protease assay kit was applied to investigate the HCV-protease inhibitory activity of the isolated antrodins, the metabolites of antrodin C as well as one metabolite analogue. The assay method with a quenched-fluorogenic peptide substrate can be used for measure the activity of inhibitors as well as for continuous recording of the progress of the enzyme reaction.
The mode of inhibition was kinetically analyzed by plotting the enzyme activity at different concentrations of the substrate (10, 50, 100 and 200 times dilution of the substrate stocking solution) with (5 μg/ml, and 10 μg/ml) and without [0 μg/ml (DMSO)] compound 1.
HCV NS3/4A protease (lot# Lot 046-047 for the screening and lot# Lot 046-079 for the mechanism study) and SensoLyte™ 520 HCV Protease Assay Kit *Fluorimetric* (lot# AK 71147-1005) were purchased from AnaSpec, San Jose, Calif., USA. The substrate was a 5-FAM/QXL™520 FRET peptide based on the sequence of Ac-Asp-Glu-Asp(EDANS)-Glu-Glu-Abu-Ψ-[COO]Ala-Ser-Lys(DABCYL)-NH2. The assay was carried out on BD Falcon™ Microtest™384-well 120 μl black assay plates (lot#05391155). Fluorescence was measured by TECAN GENios plate reader at excitation/emission 485/530 nm Chemical compounds. Antrodins A-E (compounds 1-5) were isolated from the mycelium of Antrodia cinnamomea as reported (Nakamura et al., 2004. Five new maleic and succinic acid derivatives from the mycelium of Antrodia comphorata and their cytotoxic effects on LLC tumor cell line. J Nat Prod 67: 46-48). Embelin used as a positive control was isolated in our laboratory in previous work (Hussein et al., 2000, Inhibitory effects of Sudanese medicinal plant extracts on hepatitis C virus (HCV) Protease. Phytother Res 14: 510-516). Compounds 6, 7a and 7b were detected as the metabolites of antrodin C in vivo. Compounds 7a and 7b were un-separable due to the equilibrium of these two compounds through compound 1. It was thus used for the assay as a mixture of compounds 1, 7a and 7b and named 7. Compound 8 was an analogue of another metabolite whose glycine group was supposed to connect to the other carboxyl group in the structure.
Compound 6 was dissolved in H2O and other compounds were dissolved in DMSO for the assay. To each well were added 2 μl of respective compound solution and 8 μl of freshly diluted enzyme (0.5 μg/ml). The reaction was started by adding 10 μl of freshly diluted substrate (100 times dilution of a DMSO stocking solution). After being incubated at room temperature (28° C.) for 30 min, the fluorescence intensities were measured at Ex/Em=485 nm/535 nm. Inhibition percentages were calculated as 100×(Fvehicle−Fsample)/Fvehicle=% inhibition, where F is the fluorescence value of vehicle control or of compound minus the fluorescence of the substrate control.

For data set [2], the system named is Propionicbacterium acnes and lipopolysaccharide treated mice. Conditions: cited from earlier work.
The conditions of data set [3]: cited from earlier work.

T1 sequence (O92972 1013-1207, looked up, natural form): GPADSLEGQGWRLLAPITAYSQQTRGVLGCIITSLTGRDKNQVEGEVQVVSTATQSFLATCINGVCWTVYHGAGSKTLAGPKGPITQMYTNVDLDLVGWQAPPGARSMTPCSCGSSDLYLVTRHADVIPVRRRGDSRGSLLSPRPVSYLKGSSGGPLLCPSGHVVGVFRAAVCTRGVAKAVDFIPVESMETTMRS

Take `CC(C)=CCOc1ccc(C2=C(CC(C)C)C(=O)N(O)C2=O)cc1` [Compound 3, 3-isobutyl-4-[4-(3-methyl-2-butenyloxy)phenyl]-1H-pyrrol-1-ol-2,5-dione]: the IC50 in data set [1] was 8.8 µM. Moreover, in data set [2], the protective activity entry was “showed protective activity”. In addition, the “detection of parent compound in the body” value in data set [3] (after absorption) is listed as “could not be detected in the body after absorption”. The absorption result in data set [3] (gastrointestinal tract) is on record as “quickly absorbed from the gastrointestinal tract”. Also, the metabolization entry in data set [3] (liver) is “rapid and complete metabolization in liver”. Also, the “in vivo metabolism (metabolites formed)” value in data set [3] (metabolites: compounds 1, 2, 6, 7a, 7b and an analogue of compound 8) was “converted to six metabolites”.
In the case of `CC(C)=CCOc1ccc(/C(C(=O)NCC(=O)O)=C(\CC(C)C)C(=O)O)cc1` [Compound 8], the half-maximal inhibitory concentration (IC50) in data set [1] was 148 µM.
On the same count and under the same terms, the value for `CC(C)=CCOc1ccc(C2C(=O)N(O)C(=O)C2CC(C)C)cc1` (centres unmarked) [Compound 4, 3R*,4S*-1-hydroxy-3-isobutyl-4-[4-(3-methyl-2-butenyloxy)phenyl]pyrrolidine-2,5-dione] was 60.3 µM.
Take `CC(C)=CCOc1ccc(C2=C(CC(C)C)C(=O)OC2=O)cc1` [Compound 1, 3-isobutyl-4-[4-(3-methyl-2-butenyloxy)phenyl]furan-2,5-dione]: the “mode of HCV PR inhibition (Lineweaver-Burk plot)” value in data set [1] (compound 1 at 0, 5 and 10 μg/ml, substrate 10, 50, 100 and 200 times dilution) is “competitive”. Also, the IC50 in data set [1] is 2.86 µM.
On to `CCCCCCCCCCCC1=C(O)C(=O)C=C(O)C1=O` [Embelin, reference compound], for which the IC50 in data set [1] is 13.9 µM.
As to `CC(C)=CCOc1ccc(/C(C(=O)O)=C(\CC(C)C)C(=O)O)cc1` [Compound 6, (2Z)-2-isobutyl-3-{4-[(3-methylbut-2-en-1-yl)oxy]phenyl}but-2-enedioic acid], the IC50 in data set [1] was 19.9 µM.
On to `CC(C)=CCOc1ccc(C2=C(CC(C)C)C(=O)NC2=O)cc1` [Compound 2, 3-isobutyl-4-[4-(3-methyl-2-butenyloxy)phenyl]-1H-pyrrol-2,5-dione], for which, in data set [1], the IC50 was over 319 µM.
The same measure, in the same setting: the figure for `CC(C)=CCOc1ccc(C2C(=O)N(O)C(=O)C2CC(C)C)cc1` (centres unmarked) [Compound 5, 3R*,4R*-1-hydroxy-3-isobutyl-4-[4-(3-methyl-2-butenyloxy)phenyl]pyrrolidine-2,5-dione] is 60.6 µM.

A word on the IC50: it is the concentration at which inhibition is half-maximal.
